# Laboratory results: PMC9377006, “Discovery of Desmuramylpeptide NOD2 Agonists with Single-Digit Nanomolar Potency” (ACS Medicinal Chemistry Letters, 2022)
# Key:
# [1] = test system: PBMCs; test: Cytokine release from peripheral blood mononuclear cells; format: cell-based; details: human PBMCs
# Description: Encouraged by the potent NOD2 activity of 40, we preliminarily evaluated its immunostimulatory potential in human primary peripheral blood mononuclear cells (PBMCs). Specifically, we first investigated the ability of 40 to induce cytokine production in PBMCs. While activation of NOD2 alone is sufficient to elicit cytokine responses, these responses are usually of low intensity. However, NOD2 agonists can act in synergy with ligands of other innate immune receptors and proinflammatory cytokines to induce considerably stronger responses. We were particularly intrigued by the synergistic interactions between NOD2, TLR4, and IFN-γ. The synergy between NOD2 agonists and TLR4 agonists in terms of cytokine secretion, including IFN-γ, is well-established.[29],[30] Similarly, IFN-γ has previously been reported to augment the MDP-mediated activation and cytokine production by dendritic cells and macrophages.[31],[32]
# Figure 2 Synergistic effects of 40 with LPS and IFN-γ on induction of cytokine production from PBMCs. Cytokine concentrations were measured after 18 h of stimulation with NOD2 agonists (1 μM) in the presence or absence of LPS (10 ng/mL) and IFN-γ (200 U/mL) or the corresponding vehicle (0.1% DMSO; NT). Data are expressed as mean ± SEM of three independent experiments. Statistical significance was determined by one-way ANOVA followed by Bonferroni’s multiple-comparisons test; *, p < 0.05, **, p < 0.01, ***, p < 0.001 versus vehicle-treated control; ##, p < 0.01, ###, p < 0.001 versus 40 or LPS alone.
# Figure S5. The effect of 40 on the production of cytokines from human PBMCs is NOD2 -dependent. PBMCs were pre-incubated for 1 h in the presence or absence of the NOD2 antagonist SG84 (10 µM), before the addition of 40 (1 µM). Cytokine concentrations in supernatants were measured after 18 h stimulation.
# Data are expressed as mean s ± SEM of 3 independent experiments. Statistical significance was determined by one-way ANOVA followed by Bonferroni’s multiple comparisons test; **, p < 0.01, ***, p < 0.001. […]
# 4.9 Cytokine release from peripheral blood mononuclear cells
# Peripheral blood mononuclear cells were seeded ( 500,000 cells/well) in 24-well plates in 500 µL growth medium and treated with MDP (1 µM), 2 (1 µM), or 40 (1 µM), in the presence or absence of LPS (10 ng/mL) or IFN-γ (200 U/mL), or the corresponding vehicle (0.1% DMSO). In some wells, PBMCs were pre-treated for 1 h with the NOD2 antagonist SG84 (10 µM), before the addition of 40 (1 µM). Cell-free supernatants were collected after 18 h of incubation (37 °C, 5% CO2) and stored at -80 °C until tested.
# Cytokine production was determined with BD Cytometric Bead Array human inflammatory cytokines kit (BD Bioscience) on an Attune NxT flow cytometer (Thermo Fisher Scientific, Waltham, MA, USA). Standard curves were generated using recombinant cytokines contained in the kit. The data were analyzed using the FlowJo (Tree Star, Inc., Ashland, OR, USA) and Prism (GraphPad, San Diego, CA, USA) software.
# [2] = test system: RAW-Blue cells; test: NF-κB transcriptional response in RAW-Blue reporter cells; format: cell-based, mouse; details: 1 µM, 18 h, with or without NOD2 antagonist SG84 10 µM
# Description: Given that cells of the monocyte-macrophage lineage are among the primary responders to NOD2 stimuli,[28] we also examined the effect of 40 on the NF-κB transcriptional response in RAW-Blue reporter cells. These cells, which, similarly to the HEK-Blue cells described above, stably express an NF-κB-inducible SEAP reporter gene, are derived from RAW264.7 mouse macrophages, which in addition to NOD2 also express NOD1 and most Toll-like receptors (TLRs).
# Figure S4. NF-kB transcriptional response in the RAW-Blue mouse macrophage reporter cell line. […] Statistical significance was determined by one-way ANOVA followed by Bonferroni’s multiple comparisons test; ***, p < 0.001 versus vehicle-treated control; ###, p < 0.001 versus MDP, 40, or LPS alone; ns, not significant. […]
# RAW-Blue cells were seeded (100,000 cells/well) in 96 -well plates in 200 µL growth medium (without Normocin and Zeocin) and treated with MDP (1 µM) or 40 (1 µM), in the presence or absence of LPS ( 10 ng/mL), or the corresponding vehicle (0.1% DMSO). […] After 2 h of incubation (37 °C), SEAP activity was determined spectrophotometrically as absorbance at 630 nm (BioTek Synergy microplate reader; Winooski, VT, USA). […]
# Cytokine production was determined with BD Cytometric Bead Array human inflammatory cytokines kit […]
smiles,measurement,setting,value
CCOC(=O)CC[C@@H](NC(=O)[C@@H](NC(=O)CNC(=O)/C=C/c1ccc(OC(=O)CC23CC4CC(CC(C4)C2)C3)c(OC)c1)C(C)C)C(=O)OCC [Compound 40],"production of IL-1β, IL-6 and TNF-α in combination with IFN-γ","[1]; 1 μM + IFN-γ 200 U/mL, 18 h",synergistically increased
same,production of IL-8 in combination with IFN-γ,"[1]; 1 μM + IFN-γ 200 U/mL, 18 h",no apparent effect
same,"production of IL-1β, IL-6 and TNF-α in combination with LPS","[1]; 1 μM + LPS 10 ng/mL, 18 h",superadditive manner
same,NOD2 dependence of cytokine production,"[1]; 40 1 µM, pretreatment with NOD2 antagonist SG84 10 µM",entirely NOD2-dependent
same,"production of IL-1β, IL-6, IL-8 and TNF-α, stimulant alone","[1]; 18 h, NOD2 agonists 1 μM, LPS 10 ng/mL, IFN-γ 200 U/mL",modest production
same,activation of RAW-Blue cells (NF-κB transcriptional response),[2],activate RAW-Blue cells in a NOD2-dependent manner
